Source: patent EP2545917B1, “NOVEL EP4 AGONIST” (Kaken Pharmaceutical Co., Ltd., priority 2010, dated 2011)

Legend:
[1] = In vitro metabolic stability: β-oxidation reaction in rat liver mitochondria fraction; type: in vitro ADME; settings: parent compound after NADPH-independent β-oxidation reaction, 37°C, 30 min, tested as isomer mixtures, average ± SD of 3 experiments
Method: A mixture of the compound F and compound J of the present invention described in Table 1 (F:J = 52:41, synthesized in Example 14), and a mixture of compounds wherein the tetrazole groups at C-1 of compound F and compound J are respectively substituted by carboxylic acid (referred to as carboxylate form, F:J = 54:34, synthesized in Example 15) were tested.
First, a mitochondria fraction was prepared from the rat liver according to the following Reference A. Then, in reference to the method of […] et al. described in the following References B and C, an NADPH-independent β oxidation reaction was studied. The reaction was carried out at 37°C for 30 min, and stopped with a methanol solution containing a suitable internal standard substance. Each compound was quantified by the internal standard method using a high performance liquid chromatography mass spectrometry apparatus (LC-MS/MS). The compound residual ratio after metabolic reaction of compounds F, J and each carboxylate form thereof in rat mitochondria fraction is shown in the following Table 2 in average ± standard deviation of 3 experiments. Table 2 Residual Ratio of Parent Compound after β-Oxidation Reaction

Human EP1 = target: T1, Human EP1 (Homo sapiens, UniProt P34995); test: Receptor affinity, tritium-labeled PGE2 binding to membranes of transfected COS-7 cells
T1 construct: expressed in transfected cells; host or cells: COS-7
T1 sequence (P34995 1-402): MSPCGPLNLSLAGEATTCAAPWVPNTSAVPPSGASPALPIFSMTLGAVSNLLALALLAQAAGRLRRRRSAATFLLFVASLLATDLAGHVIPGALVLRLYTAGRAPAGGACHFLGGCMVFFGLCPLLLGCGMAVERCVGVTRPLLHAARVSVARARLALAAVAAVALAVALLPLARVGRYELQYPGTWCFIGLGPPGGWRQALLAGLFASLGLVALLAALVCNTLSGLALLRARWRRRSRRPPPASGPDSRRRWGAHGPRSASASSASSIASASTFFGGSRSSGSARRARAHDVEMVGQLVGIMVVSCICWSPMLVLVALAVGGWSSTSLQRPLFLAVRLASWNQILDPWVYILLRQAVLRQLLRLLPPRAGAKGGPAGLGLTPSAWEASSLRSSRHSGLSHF
Method: PG receptor affinity of compound F and compound J of the present invention was evaluated. Compound F used was one synthesized in Example 9, and compound J was prepared by separating and purifying the compound synthesized in Example 14 with a column (the same preparations were used in the following Examples). COS-7 cells were transfected with the genes of mouse EP4, human EP1-4 or human IP to overexpress the receptor and then the cell membranes were collected. As a labeled ligand, tritium-labeled PGE2 was used for EPs; tritium-labeled iloprost, for IP. The dissociation constant Kd value was obtained and inhibition constant Ki value of each test compound was determined in a conventional method. As a reference control, PGE2 was used for EPs; beraprost sodium (BPS), for IP.

Human EP3 = target: T2, Human EP3 (Homo sapiens, UniProt P43115); test: as above
T2 construct: expressed in transfected cells; host or cells: COS-7
T2 sequence (P43115 1-390): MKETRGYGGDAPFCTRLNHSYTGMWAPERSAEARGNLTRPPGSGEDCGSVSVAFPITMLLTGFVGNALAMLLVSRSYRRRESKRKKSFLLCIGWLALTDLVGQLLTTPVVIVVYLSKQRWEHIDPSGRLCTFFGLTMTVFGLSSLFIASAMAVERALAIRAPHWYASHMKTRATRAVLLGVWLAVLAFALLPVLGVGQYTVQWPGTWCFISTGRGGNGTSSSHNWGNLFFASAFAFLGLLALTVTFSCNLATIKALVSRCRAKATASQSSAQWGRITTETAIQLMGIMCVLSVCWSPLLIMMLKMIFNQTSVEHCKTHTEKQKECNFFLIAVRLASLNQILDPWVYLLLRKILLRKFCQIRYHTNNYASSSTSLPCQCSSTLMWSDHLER
Method: (§1) COS-7 cells were transfected with the genes of mouse EP4, human EP1-4 or human IP to overexpress the receptor and then the cell membranes were collected. […] The dissociation constant Kd value was obtained and inhibition constant Ki value of each test compound was determined in a conventional method.

Human EP4 = target: T3, Human EP4 (Homo sapiens, UniProt P35408); test: as above
T3 construct: expressed in transfected cells; host or cells: COS-7
Method: as §1

[2] = system: blood pressure and heart rate; test: Effect on blood pressure and heart rate in mice; type: in vivo, ICR mice; settings: intravenous 0.01 mg/5 mL/kg, isoflurane anesthesia
Method: Male ICR mice (5 weeks old, Japan SLC) were purchased, acclimated for 6 days and used for the test. The animals were treated and measured under isoflurane inhalation anesthesia (anesthesia introduced at 2.5%, maintained at 1.8-2.1%), while body temperature was kept at 37°C with a Heat Controller (ATC-402, Unique Medical Co., Ltd.). A catheter for administration of test compounds was inserted into the left femoral vein, and another catheter was inserted into the right femoral artery and connected to a pressure transducer to record each parameter of hemodynamics.
Compound F, the carboxylate form of compound F and BPS were intravenously administered at a dose of 0.01 mg/5 mL/kg, and the effect on the mean blood pressure and heart rate was evaluated with computer software for the analysis of hemodynamics (Fluclet, Dainippon Sumitomo Pharma Co., Ltd.). To the control group was intravenously administered a solvent (1.2% ethanol solution) at 5 mL/kg in the same manner. The results are expressed as a ratio of change in each parameter before and after the drug administration. Three to 6 animals were used for each group, and the results were expressed as average ± standard deviation.

IL-2 = test: Suppressive effect on cytokine production, CD4 positive T cells stimulated with anti-CD3 and anti-CD28 antibody, ELISA; type: cell-based; settings: human CD4 positive T cells, anti-CD3/anti-CD28, 24 hr; geometric mean of three volunteers
Method: (§2) Blood was collected from 3 healthy volunteers, and CD4 positive T cells were prepared. […] In both cases, the test compound was added 30 min before stimulation.

TNF-α = test: as above; type: cell-based; settings: human CD4 positive T cells, anti-CD3/anti-CD28, 24 hr; geometric mean of three volunteers
Method: as §2

eye = test: Local irritative effect on the eye in rabbits; type: in vivo, Japanese white rabbits; settings: single instillation, left eye
Method: Japanese white rabbits (male, 10 weeks old, BIOTEC Co., Ltd.) were purchased, acclimated for 1 week and used for the study. Compound F solution (0.01 w/v%) was instilled once into the cornea of both eyes at a volume of 50 µL/eye with a micropipette. The intraocular pressure of the right eye was measured and the local irritative effect on the eye was evaluated using the left eye. After surface anesthesia with oxybupranol (Benoxil 0.4% instillation solution), the intraocular pressure was measured before ocular instillation ) and 1, 2, 3, 4, 6 and 8 hr after the instillation using a pneumatonometer (Alcon Ltd.). In addition, the local irritative effect on the eye was evaluated by scoring conjunctival congestion, conjunctival edema, cornea opacity, iris congestion, excretion and eye closure performance. For the evaluation, phosphate buffer was used for the solvent control group, and isopropyl unoprostone (Rescula eye drops, Santen Pharmaceutical Co., Ltd.) was used for comparison. Six animals were used for each group and the results were expressed as average.

T3 sequence (P35408 whole entry): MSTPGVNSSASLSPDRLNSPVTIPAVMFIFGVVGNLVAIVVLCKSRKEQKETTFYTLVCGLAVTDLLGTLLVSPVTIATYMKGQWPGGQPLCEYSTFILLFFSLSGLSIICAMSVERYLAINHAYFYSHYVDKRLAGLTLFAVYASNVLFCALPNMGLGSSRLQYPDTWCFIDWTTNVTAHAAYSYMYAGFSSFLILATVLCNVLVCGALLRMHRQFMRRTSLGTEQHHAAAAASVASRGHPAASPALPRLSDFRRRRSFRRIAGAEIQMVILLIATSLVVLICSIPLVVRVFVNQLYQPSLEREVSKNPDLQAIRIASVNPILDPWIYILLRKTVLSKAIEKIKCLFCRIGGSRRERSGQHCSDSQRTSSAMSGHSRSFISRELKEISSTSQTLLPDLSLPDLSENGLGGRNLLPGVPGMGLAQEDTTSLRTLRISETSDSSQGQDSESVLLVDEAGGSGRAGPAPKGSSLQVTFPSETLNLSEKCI

Residual ratio [1]: 91.6±6.8%
Ki (Human EP1): 610 nM
Ki (Human EP3): 410 nM
Ki (Human EP4): 6.6 nM
affinity for binding to human EP4 higher than that to human IP (Human EP4; ratio of Ki values): ≥ 100 fold
affinity for binding to human EP4 higher than those to human EP1, EP2 and EP3 receptors (Human EP4; ratio of Ki values): ≥ 60 fold
IC50 (IL-2): 0.509 nM
IC50 (TNF-α): 1.25 nM
Structure (SMILES): Cc1cccc([C@@H](C)[C@H](O)/C=C/[C@@H]2[C@@H]3[C@H](C[C@H]2O)O/C(=C\CCCc2nnn[nH]2)C3(F)F)c1 [Compound F, 4-[(Z)-(1S,5R,6R,7R)-6-[(1E,3R,4R)-3-hydroxy-4-(m-tolyl)-1-pentenyl]-7-hydroxy-2-oxa-4,4-difluoro-bicyclo[3.3.0]octan-3-ylidene]-1-(tetrazol-5-yl)butane]
effect on heart rate [2]: little effect on the heart rate
maximum decrease ratio of mean blood pressure [2]: 16.2%
local irritant effect on the eye (eye): conjunctival edema and eye closure were observed 1 hr after the instillation in some animals
